Laboratory results taken from patent US20260217692A1 (Ascentage Pharma (Suzhou) Co., Ltd., priority 2023, published 2026).
Values joined by “and” are separate entries in the source; they are usually repeats but may differ in a detail not shown here. Equal values may be shown once. Where a name gives a salt, the structure may show the parent alone.

How the values were obtained:
Assay type in all cases: physicochemical
[1] = Stability of crystal forms under stability test conditions (appearance, XRPD, HPLC)
[2] = Dynamic vapor sorption (DVS) hygroscopicity test; details: 25° C. and 80% RH
Excerpt: In the present disclosure, the DVS test parameters are set as follows: [table]

[3] = Solubility of mesylate crystal form A in buffers with different pH values at 37° C.
Procedure: Suspension states at 15 min, 2 h, 4 h, and 24 h were recorded; and different sample solutions at 15 min, 2 h, 4 h, and 24 h were collected and added to 1.5 mL centrifuge tubes. The suspensions were centrifuged at 12000 rpm for 2 min to obtain supernatants, and the supernatants were subjected to 2-fold dilution to obtain the sample solutions (the solutions were subjected to 10-fold dilution if the samples were dissolved completely). The residual substrates were centrifuged and subjected to the XRPD test.

[4] = Polymorph screening test, suspension method (crystal form by XRPD after stirring in solvent); details: mesylate screening, suspension in Toluene, 3 days
[5] = Polymorph screening test, diffusion method (crystal form by XRPD); details: mesylate screening, diffusion at room temperature
[6] = Polymorph screening test, suspension method (crystal form by XRPD after stirring in solvent); details: for Crystal form (XRPD) / Crystal form (XRPD)/85° C.: mesylate screening, 3 days

Cc1cc(Nc2ncc(Cl)c(Nc3ccccc3S(=O)(=O)C(C)C)n2)c(OC(C)C)cc1C1=CCN(C2CCOCC2)CC1 [one equivalent of mesylate crystal form A]
0.046: Concentration ([3]; pH 4.5, 4 h)
Clear solution: Crystal form (XRPD) ([5]; good solvent Dimethyl sulfoxide, poor solvent Acetone) | Crystal form (XRPD) ([5]; good solvent Dimethyl sulfoxide, poor solvent Acetonitrile) | Crystal form (XRPD) ([5]; good solvent Dimethyl sulfoxide, poor solvent Ethanol) | Crystal form (XRPD) ([5]; good solvent Dimethyl sulfoxide, poor solvent Ethyl acetate) | Crystal form (XRPD) ([5]; good solvent Dimethyl sulfoxide, poor solvent Tetrahydrofuran) | Crystal form (XRPD) ([5]; good solvent Methanol, poor solvent Acetone) | Crystal form (XRPD) ([5]; good solvent Methanol, poor solvent Acetonitrile) | Crystal form (XRPD) ([5]; good solvent Methanol, poor solvent Ethyl acetate) | Crystal form (XRPD) ([5]; good solvent Methanol, poor solvent Tetrahydrofuran) | Crystal form (XRPD) ([5]; good solvent N,N-Dimethylformamide, poor solvent Acetone) | Crystal form (XRPD) ([5]; good solvent N,N-Dimethylformamide, poor solvent Acetonitrile) | Crystal form (XRPD) ([5]; good solvent N,N-Dimethylformamide, poor solvent Ethanol) | Crystal form (XRPD) ([5]; good solvent N,N-Dimethylformamide, poor solvent Ethyl acetate) | Crystal form (XRPD) ([5]; good solvent N,N-Dimethylformamide, poor solvent Tetrahydrofuran) | Crystal form (XRPD) ([6]; suspension in Acetone-water 1:1, 25° C.) | Crystal form (XRPD) ([6]; suspension in Acetone-water 1:1, 50° C.) | Crystal form (XRPD) ([6]; suspension in Acetonitrile-water 1:1, 25° C.) | Crystal form (XRPD) ([6]; suspension in Acetonitrile-water 1:1, 50° C.) | Crystal form (XRPD) ([6]; suspension in Dichloromethane/methanol (v/v, 1:1), 25° C.) | Crystal form (XRPD) ([6]; suspension in Methanol-water 1:1, 50° C.)
remained stable: crystal form when stirred in solvent ([6]; ethanol, isopropanol, ethyl acetate, isopropyl acetate, methyl tert-butyl ether, tetrahydrofuran, N-methylpyrrolidone, methyl acetate, 2-methyltetrahydrofuran, cyclohexane, n-hexane, toluene, or n-heptane at 25-50° C.) | crystal form when stirred in solvent ([6]; toluene or n-heptane at 25-85° C.)
Crystal form A: Crystal form result by XRPD test ([1]; 25° C./60% RH, 1 month) | Crystal form result by XRPD test ([1]; 25° C./60% RH, 2 months) | Crystal form result by XRPD test ([1]; 25° C./60% RH, 3 months) | Crystal form result by XRPD test ([1]; 25° C./60% RH, 6 months) | Crystal form result by XRPD test ([1]; 25° C./60% RH, 5 days) | Crystal form result by XRPD test ([1]; 25° C./60% RH, 10 days) | Crystal form result by XRPD test ([1]; 40° C./75% RH, 1 month) | Crystal form result by XRPD test ([1]; 40° C./75% RH, 2 months) | Crystal form result by XRPD test ([1]; 40° C./75% RH, 3 months) | Crystal form result by XRPD test ([1]; 40° C./75% RH, 6 months) | Crystal form result by XRPD test ([1]; 40° C./75% RH, 5 days) | Crystal form result by XRPD test ([1]; 40° C./75% RH, 10 days) | Crystal form result by XRPD test ([1]; 60° C., 1 month) | Crystal form result by XRPD test ([1]; 60° C., 2 months) | Crystal form result by XRPD test ([1]; 60° C., 3 months) | Crystal form result by XRPD test ([1]; 60° C., 6 months) | Crystal form result by XRPD test ([1]; 60° C., 5 days) | Crystal form result by XRPD test ([1]; 60° C., 10 days) | Crystal form result by XRPD test ([1]; 90% RH, 1 month) | Crystal form result by XRPD test ([1]; 90% RH, 2 months) | Crystal form result by XRPD test ([1]; 90% RH, 3 months) | Crystal form result by XRPD test ([1]; 90% RH, 5 days) | Crystal form result by XRPD test ([1]; 90% RH, 10 days) | Crystal form (XRPD)/85° C. [4] | Crystal form (XRPD) ([5]; good solvent Dichloromethane, poor solvent Acetone) | Crystal form (XRPD) ([5]; good solvent Dichloromethane, poor solvent Ethanol) | Crystal form (XRPD) ([6]; suspension in 1,4-Dioxane, 25° C.) | Crystal form (XRPD) ([6]; suspension in Dichloromethane/acetone (v/v, 1:1), 25° C.) | Crystal form (XRPD)/85° C. ([6]; suspension in Dioxane) | Crystal form (XRPD)/85° C. ([6]; suspension in MIBK) | Crystal form (XRPD) ([6]; suspension in Methyl tert-butyl ether, 25° C.) | Crystal form (XRPD) ([6]; suspension in Methyl tert-butyl ether, 50° C.) | Crystal form (XRPD) ([6]; suspension in Tetrahydrofuran, 25° C.) | Crystal form (XRPD) ([6]; suspension in Tetrahydrofuran, 50° C.) | Crystal form (XRPD) ([6]; suspension in Toluene, 25° C.) | Crystal form (XRPD) ([6]; suspension in Toluene, 50° C.) | Crystal form (XRPD) ([6]; suspension in n-Heptane, 25° C.) | Crystal form (XRPD) ([6]; suspension in n-Heptane, 50° C.) | Crystal form (XRPD)/85° C. ([6]; suspension in n-Heptane)
relatively good stability: stability of crystal form in solvent, suspension method ([6]; ethanol, isopropanol, ethyl acetate, isopropyl acetate, methyl tert-butyl ether, tetrahydrofuran, N-methylpyrrolidone, methyl acetate, 2-methyltetrahydrofuran, cyclohexane, n-hexane, toluene, or n-heptane)
0.003: Concentration ([3]; pH 6.8, 15 min)
>6: Concentration ([3]; 0.01N hydrochloric acid, 15 min) | Concentration ([3]; 0.01N hydrochloric acid, 2 h) | Concentration ([3]; 0.01N hydrochloric acid, 4 h) | Concentration ([3]; 0.01N hydrochloric acid, 24 h) | Concentration ([3]; pH 1.2, 15 min) | Concentration ([3]; pH 1.2, 2 h) | Concentration ([3]; pH 1.2, 4 h) | Concentration ([3]; pH 1.2, 24 h) | Concentration ([3]; pH 4.5, 15 min)
4.567: Concentration ([3]; Pure water, 24 h)
0.747: Concentration ([3]; Pure water, 15 min)
Crystal form E: Crystal form (XRPD) ([6]; suspension in 1,4-Dioxane, 50° C.)
0.31±0.005% and 0.31%: hygroscopic weight gain (DVS curve) [2]
0.005: Concentration ([3]; pH 6.8, 2 h) | Concentration ([3]; pH 6.8, 4 h)
No solid sample: Crystal form (XRPD) ([6]; suspension in Dichloromethane, 25° C.) | Crystal form (XRPD) ([6]; suspension in Dichloromethane, 50° C.) | Crystal form (XRPD) ([6]; suspension in Dichloromethane/acetone (v/v, 1:1), 50° C.) | Crystal form (XRPD) ([6]; suspension in Dichloromethane/methanol (v/v, 1:1), 50° C.)
Crystal forms A + B: Crystal form (XRPD) ([5]; good solvent Dichloromethane, poor solvent Acetonitrile) | Crystal form (XRPD) ([5]; good solvent Dichloromethane, poor solvent Ethyl acetate) | Crystal form (XRPD) ([5]; good solvent Dichloromethane, poor solvent Tetrahydrofuran)
4.930: Concentration ([3]; Pure water, 2 h)
0.044: Concentration ([3]; pH 4.5, 2 h)
0.015: Concentration ([3]; pH 6.8, 24 h)
4.657: Concentration ([3]; Pure water, 4 h)
Crystal form B: Crystal form (XRPD) ([6]; suspension in Methanol-water 1:1, 25° C.) | Crystal form (XRPD) ([6]; suspension in Water, 25° C.) | Crystal form (XRPD) ([6]; suspension in Water, 50° C.)
